Experiments:
[1] = molecular target: T1, Serine protease 1 (Bos taurus, UniProt P00760); assay: Binding affinity towards trypsin
T1 sequence (P00760 whole entry): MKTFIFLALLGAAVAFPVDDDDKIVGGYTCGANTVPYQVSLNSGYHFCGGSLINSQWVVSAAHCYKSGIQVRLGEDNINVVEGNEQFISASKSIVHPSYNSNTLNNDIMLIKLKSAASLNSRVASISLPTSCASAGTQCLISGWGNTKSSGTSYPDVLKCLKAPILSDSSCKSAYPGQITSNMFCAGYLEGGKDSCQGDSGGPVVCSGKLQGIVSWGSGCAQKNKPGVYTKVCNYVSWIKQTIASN

[2] = molecular target: Coagulation factor X (Homo sapiens, UniProt P00742); assay: Binding affinity towards Coagulation factor Xa
[3] = molecular target: Prothrombin (Bos taurus, UniProt P00735); assay: Binding affinity towards thrombin

Chain of Coagulation factor X (P00742 41-179 limits assumed): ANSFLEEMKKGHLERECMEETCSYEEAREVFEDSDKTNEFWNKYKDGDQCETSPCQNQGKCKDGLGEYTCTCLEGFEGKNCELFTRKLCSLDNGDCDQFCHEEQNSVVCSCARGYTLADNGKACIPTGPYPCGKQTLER
Chain of Coagulation factor X (P00742 235-488 limits assumed): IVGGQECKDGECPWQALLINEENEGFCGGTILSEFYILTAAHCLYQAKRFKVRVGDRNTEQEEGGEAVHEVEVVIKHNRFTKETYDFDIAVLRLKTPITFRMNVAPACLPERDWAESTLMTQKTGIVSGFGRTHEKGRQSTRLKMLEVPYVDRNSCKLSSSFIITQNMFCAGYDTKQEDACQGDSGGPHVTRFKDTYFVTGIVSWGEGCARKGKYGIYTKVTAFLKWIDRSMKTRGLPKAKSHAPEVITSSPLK

SMILES	Ki [1] [µM]	Ki [2] [µM]	Ki [3] [µM]
N=C(N)c1cccc(C[C@H](NS(=O)(=O)c2ccc3ccccc3c2)C(=O)N2CCC(C=O)CC2)c1	0.22	19	0.037
N=C(N)c1cccc(C[C@H](NS(=O)(=O)c2ccc3ccccc3c2)C(=O)N2Cc3ccccc3C[C@@H]2C(=O)O)c1	0.13	41.5	0.018
N=C(N)c1cccc(C[C@H](NS(=O)(=O)c2ccc3ccccc3c2)C(=O)N2CCC[C@H](C(=O)O)C2)c1	[…]	[…]	1.1
CNC(=O)[C@H](Cc1cccc(C(=N)N)c1)NS(=O)(=O)c1ccc2ccccc2c1	25.1	26	5.7
N=C(N)c1cccc(C[C@H](NS(=O)(=O)c2ccc3ccccc3c2)C(=O)N2CCCCCC2)c1	0.55	26	0.021
CC(C)(C)c1ccc(S(=O)(=O)N[C@@H](Cc2cccc(C(=N)N)c2)C(=O)N2CCN(S(C)(=O)=O)CC2)cc1	0.16	–	0.00427
CC1CCN(C(=O)[C@H](Cc2cccc(C(=N)N)c2)NS(=O)(=O)c2ccc3ccccc3c2)CC1	–	41	–
CNC(=O)[C@H]1CCCN(C(=O)[C@H](Cc2cccc(C(=N)N)c2)NS(=O)(=O)c2c(C(C)C)cc(C(C)C)cc2C(C)C)C1	0.794	1.51	0.23
CCCCNC(=O)[C@H](Cc1cccc(C(=N)N)c1)NS(=O)(=O)c1ccc2ccccc2c1	4	46.8	0.12
N=C(N)c1cccc(C[C@H](NS(=O)(=O)c2ccc3ccccc3c2)C(=O)N2CCC[C@H]2C(=O)O)c1	16	130	–
CN(C)C(=O)N1CCN(C(=O)[C@H](Cc2cccc(C(=N)N)c2)NS(=O)(=O)c2ccc3ccccc3c2)CC1	0.17	24	0.00871
CC1CCN(C(=O)[C@H](Cc2cccc(C(=N)N)c2)NS(=O)(=O)c2cccc3ccccc23)CC1	0.631	42	0.016
CS(=O)(=O)N1CCN(C(=O)[C@H](Cc2cccc(C(=N)N)c2)NS(=O)(=O)c2ccc3ccccc3c2)CC1	0.19	22	–
N=C(N)c1cccc(C[C@H](NS(=O)(=O)c2ccc3ccccc3c2)C(=O)N2CCN(c3ccccc3)CC2)c1	0.027	27	0.52
CC(=O)N1CCN(C(=O)[C@H](Cc2cccc(C(=N)N)c2)NS(=O)(=O)c2ccc3ccccc3c2)CC1	0.141	48	–
COC(=O)[C@H]1CCCCN1C(=O)[C@H](Cc1cccc(C(=N)N)c1)NS(=O)(=O)c1ccc2ccccc2c1	1.9	46	0.0692
N=C(N)c1cccc(C[C@H](NS(=O)(=O)c2ccc3ccccc3c2)C(=O)N2CCCC2)c1	0.437	50	0.052
CC1CCN(C(=O)[C@H](Cc2cccc(C(=N)N)c2)NS(=O)(=O)c2ccc(C(C)(C)C)cc2)CC1	0.2	12	0.005
Cc1ccc(S(=O)(=O)N[C@@H](Cc2cccc(C(=N)N)c2)C(=O)N2CCCCC2)cc1	–	15.1	0.34
CS(=O)(=O)N1CCN(C(=O)[C@H](Cc2cccc(C(=N)N)c2)NS(=O)(=O)c2cccc3ccccc23)CC1	–	9.71	0.026
Cc1c(C)c(S(=O)(=O)N[C@@H](Cc2cccc(C(=N)N)c2)C(=O)N2CCN(S(C)(=O)=O)CC2)c(C)c2c1OC(C)(C)CC2	0.76	74.1	0.00741
CS(=O)(=O)N1CCN(C(=O)[C@@H](N)Cc2cccc(C(=N)N)c2)CC1	29	1000	13
COC(=O)C1CCN(C(=O)[C@H](Cc2cccc(C(=N)N)c2)NS(=O)(=O)c2ccc3ccccc3c2)CC1	0.036	42.7	0.017
CC1CCN(C(=O)[C@H](Cc2cccc(C(=N)N)c2)NS(=O)(=O)c2c(C(C)C)cc(C(C)C)cc2C(C)C)CC1	0.69	2	0.0741
N=C(N)c1cccc(C[C@H](NS(=O)(=O)c2ccc3ccccc3c2)C(=O)N2CC[C@@H]3CCCC[C@H]32)c1	1.2	13	0.32
N=C(N)c1cccc(C[C@H](NS(=O)(=O)c2ccc3ccccc3c2)C(=O)N2CCCC[C@@H]2C(=O)O)c1	0.631	38	0.26
N=C(N)c1cccc(C[C@H](NS(=O)(=O)c2ccc3ccccc3c2)C(=O)N2CCCCCCC2)c1	0.61	22	0.03
CC(C)c1cc(C(C)C)c(S(=O)(=O)N[C@@H](Cc2cccc(C(=N)N)c2)C(=O)N2CCC[C@H](C(=O)O)C2)c(C(C)C)c1	2.4	13	–
CNC(=O)[C@H](Cc1cccc(C(=N)N)c1)NS(=O)(=O)c1c(C)c(C)c2c(c1C)CCC(C)(C)O2	32	10	–

More lines, now with the values ahead:

Ki [1] [µM]	Ki [2] [µM]	Ki [3] [µM]	SMILES
16	360	6.19	CC(C)NC(=O)[C@H](Cc1cccc(C(=N)N)c1)NS(=O)(=O)c1ccc2ccccc2c1
0.26	3.1	0.013	CCCCOC(=O)[C@H](Cc1cccc(C(=N)N)c1)NS(=O)(=O)c1ccc2ccccc2c1
0.851	0.899	0.899	CC(C)c1cc(C(C)C)c(S(=O)(=O)N[C@@H](Cc2cccc(C(=N)N)c2)C(=O)N2CCC[C@H](C(=O)OCc3ccccc3)C2)c(C(C)C)c1
31	41	–	N=C(N)c1cccc(C[C@H](NS(=O)(=O)c2ccc3ccccc3c2)C(=O)N2CC(C(=O)O)=Cc3ccccc32)c1
0.991	83.2	0.18	COC(=O)C1CCN(C(=O)[C@H](Cc2cccc(C(=N)N)c2)NS(=O)(=O)c2c(C)cc(C)cc2C)CC1
29	230	–	CC1CCN(C(=O)[C@@H](N)Cc2cccc(C(=N)N)c2)CC1
8.09	110	0.661	COC(=O)[C@@H]1CCCN1C(=O)[C@H](Cc1cccc(C(=N)N)c1)NS(=O)(=O)c1ccc2ccccc2c1
0.02	77.6	0.019	COC(=O)N1CCN(C(=O)[C@H](Cc2cccc(C(=N)N)c2)NS(=O)(=O)c2ccc3ccccc3c2)CC1
0.067	8.09	0.21	N=C(N)c1cccc(C[C@H](NS(=O)(=O)c2ccc3ccccc3c2)C(=O)N2CCC(C(=O)OCc3ccccc3)CC2)c1
0.12	17	0.28	N=C(N)c1cccc(C[C@H](NS(=O)(=O)c2ccc3ccccc3c2)C(=O)N2CCC[C@H](C(=O)NCc3ccccc3)C2)c1
1000	640	–	CNC(=O)[C@H](Cc1cccc(C(=N)N)c1)NS(=O)(=O)c1c(C)cc(C)cc1C
0.16	8.59	0.3	N=C(N)c1cccc(C[C@H](NS(=O)(=O)c2ccc3ccccc3c2)C(=O)N2CCC[C@H](C(=O)OCc3ccccc3)C2)c1
7.94	57	2.3	CNC(=O)[C@H]1CCCCN1C(=O)[C@H](Cc1cccc(C(=N)N)c1)NS(=O)(=O)c1ccc2ccccc2c1
0.08	7.6	2.1	N=C(N)c1cccc(C[C@H](NS(=O)(=O)c2ccc3ccccc3c2)C(=O)N2CCC(C(=O)OC3CCCCC3)CC2)c1
118	130	30	N=C(N)c1cccc(C[C@H](NS(=O)(=O)c2ccc3ccccc3c2)C(=O)C(=O)O)c1
4	95.5	0.059	Cc1cc(C)c(S(=O)(=O)N[C@@H](Cc2cccc(C(=N)N)c2)C(=O)N2CCC(C)CC2)c(C)c1
1	20	0.631	N=C(N)c1cccc(C[C@H](NS(=O)(=O)c2ccc3ccccc3c2)C(=O)N2CCC[C@H]2C(=O)OCc2ccccc2)c1
1.51	2.3	0.12	N=C(N)c1cccc(C[C@H](NS(=O)(=O)c2ccc3ccccc3c2)C(=O)N2CCCc3ccccc32)c1
14.1	64.6	1.2	CC1CCN(C(=O)[C@H](Cc2cccc(C(=N)N)c2)NC(=O)OC(C)(C)C)CC1
2.2	76	0.35	Cc1ccc(S(=O)(=O)N[C@@H](Cc2cccc(C(=N)N)c2)C(=O)N2CCCC2)cc1
0.61	17	0.23	N=C(N)c1cccc(C[C@H](NS(=O)(=O)c2cccc3ccccc23)C(=O)N2CCCCC2)c1
1.2	27	0.2	COC(=O)[C@H]1Cc2ccccc2CN1C(=O)[C@H](Cc1cccc(C(=N)N)c1)NS(=O)(=O)c1ccc2ccccc2c1
0.71	52	0.17	Cc1ccc(S(=O)(=O)N[C@@H](Cc2cccc(C(=N)N)c2)C(=O)N2CCOCC2)cc1
0.26	18	0.037	N=C(N)c1cccc(C[C@H](NS(=O)(=O)c2ccc3ccccc3c2)C(=O)N2CCc3ccccc3C2)c1
1	22	15.1	N=C(N)c1cccc(C[C@H](NS(=O)(=O)c2ccc3ccccc3c2)C(=O)N2CCC(N3CCCCC3)CC2)c1
0.631	14.1	0.0141	CC1CCN(C(=O)[C@H](Cc2cccc(C(=N)N)c2)NS(=O)(=O)C[C@]23CC[C@H](CC2=O)C3(C)C)CC1
–	180	0.34	CC1CCN(C(=O)[C@H](Cc2cccc(C(=N)N)c2)NS(=O)(=O)c2cccc3cccnc23)CC1
–	38	0.0646	N=C(N)c1cccc(C[C@H](NS(=O)(=O)c2ccc3ccccc3c2)C(=O)N2CCCCC2)c1

From ChEMBL document CHEMBL1132189, “Three-dimensional quantitative structure-activity relationship analyses using comparative molecular field analysis and comparative molecular similarity indices analysis to elucidate selectivity differences of inhibitors binding to trypsin, thrombin, and factor Xa” (J Med Chem, 1999)
